Assay results published in PubChem BioAssay AID1985 (Southern Research Specialized Biocontainment Screening …, 2009).
Several values for one entry are separate records, joined by “and”; a condition that tells them apart may be missing. Equal entries are not always repeated.

System: S. Typhi PhoP-promoter GFP reporter, fluorescence, 4 h
Test: modified counter assay using GFP fluorescence, PhoP regulon inhibitor project, dose response (AID 1985)

Row | Structure (SMILES) | IC50
1 | Cc1ccc2nc(N(CCCN(C)C)C(=O)c3sc4ccccc4c3Cl)sc2c1 | 54.7 µM
2 | NC1CCN(c2c(F)cc3c(=O)c(C(=O)O)cn(C4CC4)c3c2Cl)C1 (configuration not stated) | < 0.23 µM
3 | CCN1CCN(Cc2ccc(NC(=O)c3cc(NC(=O)c4cc(-c5ccc(OC)cc5)n[nH]4)cc(OC)c3)cc2C(F)(F)F)CC1 | 102 µM
4 | OC(CNCCc1ccc(C(F)(F)F)cc1)COC(c1ccccc1)c1ccccc1 (configuration not stated) | 82.9 µM
5 | O=C(N/N=C/c1ccc([N+](=O)[O-])o1)C(O)c1ccccc1 (configuration not stated) | 13.1 µM
6 | NC(=O)c1ccc(N=C2C(=O)Nc3ccc([N+](=O)[O-])cc32)cc1 | 31.8 µM
7 | CN1CCN(C2=Cc3ccccc3Sc3cc(F)c(F)cc32)CC1 | 74.6 µM
8 | CCc1ccc2c(c1)Sc1ccccc1CC2N1CCN(C)CC1 (configuration not stated) | 76.8 µM
9 | COc1ccc(N2C3=C(CC4=C2CC(C)(C)CC4=O)C(=O)CC(C)(C)C3)cc1 | 146 µM
10 | O=C(Nc1c2ccccc2nc2ccccc12)C(Cl)(Cl)Cl | 43.8 µM
11 | CCCCCC[N+](C)(C)CC/C=C1/c2ccccc2Sc2ccc(Cl)cc21 | 36.3 µM
12 | CCCCCCCCCCOC(=O)Cn1c(COc2ccc(C)cc2)[n+](C)c2ccccc21 | 16.6 µM
13 | O=C(CSc1nnc(-c2cccnc2)n1Cc1ccco1)c1ccc2ccccc2c1 | < 0.23 µM
14 | CCCCCC(=O)NNC(=S)NC(C)=O | 22.9 µM
15 | C=CCn1c(NS(=O)(=O)c2ccccc2)c(S(=O)(=O)c2ccc(C)cc2)c2nc3ccccc3nc21 | 135 µM
16 | O=C(Nc1nonc1NC(=O)c1cccs1)c1cccs1 | 100 µM
17 | Cc1cc(NS(=O)(=O)c2ccc(NC(=S)NC(=O)c3cccnc3)cc2)no1 | 126 µM
18 | COc1ccc(Nc2ccnc3ccccc23)cc1 | 85.8 µM
19 | O=C1C(=O)c2ccccc2-c2ccccc21 | 19 µM
20 | O=C1OCC(CO)(CO)N=C1NNc1ccc(Cl)c(Cl)c1 | 26.1 µM
21 | CCCCCCCCCCOC(=O)Cn1c(COc2ccc(OC)cc2)[n+](C)c2ccccc21 | 19.4 µM and 18.5 µM
22 | CCCCOc1ccc(CN=C(N)N)cc1Cl | 103 µM
23 | O=C(CC(=O)c1cc(Cl)ccc1O)c1ccccc1 | 128 µM

Row | Structure (SMILES) | IC50
24 | CN(C)CC/C=C1\c2ccccc2Sc2cc(F)c(Cl)cc21 | 65.4 µM
25 | COc1ccc(C(=O)CCN2CCc3cc(OC)c(OC)cc3C2)cc1 | 122 µM
26 | CC[C@@H](C)[C@H](CNC)NC[C@@H](Cc1cccc2ccccc12)NCCc1cccc(C(F)(F)F)c1 | 21.8 µM
27 | COc1cccc(F)c1C(C[N+](=O)[O-])c1c(N)n(C)c(=O)n(C)c1=O (configuration not stated) | 142 µM
28 | Oc1[nH]c2ccccc2c1N=NC(=S)N1CCOCC1 | 17.4 µM
29 | CCOC(=O)N/N=C\c1ccc([N+](=O)[O-])o1 | 23.7 µM
30 | CNC[C@H](CC1CCCCC1)NC[C@H](Cc1ccccc1)NCCC12CC3CC(CC(C3)C1)C2 | 14.8 µM
31 | Cc1ccc(NC(=O)c2ccc([N+](=O)[O-])o2)c(C)c1 | 38.9 µM
32 | CC[n+]1c(/C=C/C=C/c2ccc(N(C)C)cc2)sc2ccccc21 | 35.7 µM
33 | O=C(/C=C/c1ccccc1)NC(=S)NNC(=O)c1cnccn1 | 146 µM
34 | CC(C(=O)NC1CCS(=O)(=O)C1)N1C(=O)/C(=C/c2ccc(Cl)cc2)SC1=S (configuration not stated) | 18.3 µM
35 | CC(=O)NNC(=S)NC(=O)c1ccccc1 | 22.7 µM
36 | CCSc1ccc2c(c1)N(CCCN1CCN(C)CC1)c1ccccc1S2 | 131 µM
37 | O=C(N/N=C/c1cc(Cl)cc(Cl)c1O)c1ccncc1 | 20.2 µM
38 | CCn1cc(C(=O)O)c(=O)c2cc(F)c(N3CCN(C(=S)Nc4ccccc4OC)CC3)cc21 | 6.7 µM
39 | CN1CCN(CC(=O)N2CCn3c4c(c5cc(C6CCCCC6)ccc53)CCCC42)CC1 (configuration not stated) | 76.5 µM
40 | Oc1ccc(COCc2ccccc2)c2cccnc12 | 47.8 µM
41 | O=C(Oc1c(Cl)cc(Cl)c2cccnc12)c1cccc([N+](=O)[O-])c1 | 5.09 µM
42 | O=c1cc(-c2ccccc2)nc2nc(-c3ccco3)[nH]n12 | 139 µM
43 | O=C(CCN1CCOCC1)N/N=C/c1cc(Br)cc(Br)c1O | 30.7 µM
44 | O=C(/C=C/c1ccc(F)cc1)NC(=S)NNC(=O)c1cnccn1 | 20.4 µM
45 | Cc1cccc2sc(N(CCCN(C)C)C(=O)COc3ccc(Cl)cc3)nc12 | 79 µM
46 | CCOC(=O)N1CCC(=NNc2ccnc3cc(Cl)ccc23)CC1 | 61.2 µM

Row | Structure (SMILES) | IC50
47 | CCCCCOc1ccc(C)cc1CN(CCCl)CCCl | 138 µM
48 | Nc1nonc1C(=O)NCCN=Cc1cc(Cc2ccccc2)cc(Br)c1O | 83.3 µM
49 | O=C1CN(/N=C/c2ccc([N+](=O)[O-])o2)C(=O)N1 | 32.2 µM
50 | OC1(c2ccc(Cl)cc2)CCN(Cc2c[nH]c3ccccc23)CC1 | 101 µM
51 | CCCCC(=O)NC(=S)NNC(=O)CC | 50.2 µM
52 | CC(/C=N/Nc1nc2ccccc2[nH]1)=C\c1ccccc1 | 71.8 µM
53 | CCCCCCCSc1cc(OC)c(CCN(C)C)cc1OC | 83.5 µM
54 | N=c1n(CC(=O)c2ccc(Br)s2)c2ccccc2n1Cc1ccccc1 | 47.2 µM
55 | O=C(N/N=C/c1c[nH]c2ccccc12)c1cc2ccccc2o1 | 33.5 µM
56 | CSc1nc2ccc(Cl)cc2[nH]1 | 50.4 µM
57 | O=C1C(O)=C(O)C(=O)c2ccccc21 | 88.8 µM
58 | ON=C1/C(=N\O)CC2(C/C1=N/O)OCCO2 | 112 µM
59 | CC1=NOC(=O)/C1=C/c1ccc(O)cc1 | 117 µM
60 | CCCCOc1ccc(C(=O)OC2CC(C)N(C)CC2C)cc1 (configuration not stated) | 41.7 µM
61 | C/C(=N\NC(=O)c1cccc(Br)c1)c1ccccn1 | 54.4 µM
62 | NC[C@@H]1O[C@H](C23CC4CC(CC(C4)C2)C3)Cc2c1ccc(O)c2O | 39.8 µM
63 | Cc1ccc2nc(NCc3ccccc3)[nH]c2c1 | 72.6 µM
64 | O=C(N/N=C/c1cc(Cl)ccc1O)c1cccnc1 | 28.2 µM
65 | CCc1ccc(CNCc2ccc(OCC(O)CN(C)Cc3ccccc3)cc2)nc1 (configuration not stated) | 146 µM
66 | O=Nc1c(O)c2ccccc2c2ccccc12 | 24.6 µM
67 | COc1ccc(C(C[N+](=O)[O-])C2(c3ccc(OC)c(OC)c3)C(=O)c3ccccc3C2=O)cc1 (configuration not stated) | 8.15 µM
68 | COc1nccnc1NS(=O)(=O)c1ccc(N=Cc2c(C)[nH]n(-c3ccc(C)c(C)c3)c2=O)cc1 | 114 µM
69 | CCCCCCCCCCCCCCCC[n+]1ccc(C(N)=O)cc1 | 15.4 µM

Row | Structure (SMILES) | IC50
70 | CCCCCCCNC(=O)C1(CC2CC(c3ccc(Cl)cc3)=NO2)CCNCC1 (configuration not stated) | 39 µM
71 | CC(NCc1ccc(Cl)c(Cl)c1)C(O)c1ccccc1 (configuration not stated) | 82.3 µM
72 | Clc1cccc(CN2CCc3c([nH]c4ccccc34)C2)c1Cl | 104 µM
73 | CC[C@H]1OC(=O)[C@H](C)[C@@H](O[C@H]2C[C@@](C)(OC)[C@@H](O)[C@H](C)O2)[C@H](C)[C@@H](O[C@@H]2O[C@H](C)C[C@H](N(C)C)[C@H]2O)[C@](C)(O)C[C@@H](C)CN(C)[C@H](C)[C@@H](O)[C@]1(C)O | 2.33 µM
74 | [O-][n+]1cccc2c(Br)cc(Br)c(O)c21 | 21.9 µM
75 | O=[N+]([O-])c1cccc(NNS(=O)(=O)c2ccccc2F)c1 | 8.04 µM
76 | CCOc1ccc(OCCSc2nc3ccccc3[nH]2)cc1 | 106 µM
77 | COc1cc(/C=N/N=C(N)N)ccc1OCc1ccc(Cl)cc1 | 36.7 µM
78 | COc1c(N2CCN(C(=S)NC3CC4CCC3C4)C(C)C2)c(F)cc2c(=O)c(C(=O)O)cn(C3CC3)c12 (configuration not stated) | 1.11 µM
79 | CN(C)CCCNc1cc(C(C)(C)C)nc2c(-c3ccc(Cl)cc3)cnn12 | 34.8 µM
80 | CCn1cc(C(=O)O)c(=O)c2cc(F)c(N3CCN(C(=S)NC(=O)c4ccccc4C)CC3)cc21 | 28.2 µM
81 | Cc1ccc(NC(=S)Nc2ccc(S(=O)(=O)Nc3ncccn3)cc2)cc1Cl | 101 µM
82 | O=C(/C=C/c1ccccc1Cl)Nc1cccc(O)c1 | 61.7 µM
83 | Oc1ccc(C[C@@H]2CNCCN2CCC23CC4CC(CC(C4)C2)C3)cc1 | 78.9 µM
84 | O=[N+]([O-])c1cccc2c(N3CCCC3)ccnc12 | 17.6 µM
85 | C#CCOCCOCCOCCNc1nc(N2CCN(C(=O)CCCCCCCCCCNC(=O)[C@H]([C@@H](C)CC)n3cc(CCCCN=C(N)N)nn3)CC2)nc(N2CCN(C(=O)CCCCCCCCCCNC(=O)[C@H](CCCCN)n3cc(C)nn3)CC2)n1 | 69.3 µM
86 | C#CCOCCOCCOCCNc1nc(N2CCN(C(=O)CCCCCCCCCCNC(=O)[C@H](CO)n3cc(CCCCCN)nn3)CC2)nc(N2CCN(C(=O)CCCCCCCCCCNC(=O)[C@H](CCCN=C(N)N)n3cc(C[C@@H](C)CC)nn3)CC2)n1 | 142 µM
87 | O=C1NCCCC1C(=O)N/N=C/c1cc([N+](=O)[O-])ccc1O (configuration not stated) | 114 µM
88 | Cc1cc(OCC(O)CNC(C)c2ccccc2)ccc1C(C)C (configuration not stated) | 82.6 µM
89 | Cc1ccc(CC(=O)Nc2ncc([N+](=O)[O-])s2)cc1 | 94.4 µM
90 | O=C(N/N=C/c1c[nH]c2ccccc12)c1cccc(O)c1 | 130 µM
91 | N=c1n(CCN2CCCCC2)c2ccccc2n1CC(O)COc1ccccc1 (configuration not stated) | 90.2 µM
92 | COc1ccc(NC(=O)COC(=O)c2ccc([N+](=O)[O-])o2)cc1Cl | 46.8 µM

Row | Structure (SMILES) | IC50
93 | O=C(Nc1ccc2nc(-c3ccc(Br)o3)[nH]c2c1)c1ccco1 | 130 µM
94 | Cc1cc(Br)ccc1OCCCCNCCO | 61.8 µM
95 | CCCCOCCCNc1ncnc2c1[nH]c1ccccc12 | 72.8 µM
96 | Cc1cc(NC(=O)c2ccc3[nH]c(C)c(C)c3c2)ccn1 | 144 µM
97 | CCN1CCCC1CNC(=O)C1CCN(Cc2nc(-c3cccc(Br)c3)oc2C)CC1 (configuration not stated) | 143 µM
98 | C=CCNc1ncnc2c1[nH]c1ccc(Cl)cc12 | 49.2 µM
99 | NC1=NC[C@H](CC2CCCCC2)N1CCc1cc(C(F)(F)F)cc(C(F)(F)F)c1 | 37.6 µM
100 | NC1=NC[C@H](Cc2ccc(O)cc2)N1CCC12CC3CC(CC(C3)C1)C2 | 95 µM
101 | CCN(CC(=O)NC(C)(C)C)C(=O)COc1c(Cl)cc(Cl)c2ccc(C)nc12 | 43.5 µM
102 | C=C1c2c(Cl)ccc(O)c2C(O)=C2C(=O)[C@]3(O)C(O)=C(C(N)=O)C(=O)[C@@H](N(C)C)[C@@H]3[C@@H](O)C12 (some centres not stated) | 0.924 µM
103 | N=c1n(Cc2ccc(Cl)cc2)c2ccccc2n1CC(O)COc1ccccc1 (configuration not stated) | 66.8 µM
104 | CCn1cc(C(=O)NCCO)c(=O)c2cc(F)c(N3CCN(C)CC3)cc21 | 16.3 µM
105 | O=C(NC(=S)NNC(=O)c1cccs1)c1ccc(Br)o1 | 25.4 µM
106 | c1ccc(CN2CCN(c3ncnc4c3[nH]c3ccccc34)CC2)cc1 | 103 µM
107 | N#Cc1c(-c2ccccc2)ccn(Cc2cccc(Cl)c2)c1=O | 21.2 µM
108 | O=C(/C=C/c1ccco1)NC(=S)NNC(=O)c1ccco1 | 111 µM
109 | Cc1cc(OCCCCCN2CCCC2)ccc1Cl | 112 µM
110 | CCOc1ccc(Nc2nc(N)c3ccccc3n2)cc1 | 44.5 µM
111 | CN(C)CCCn1c(SCC(=O)N2c3ccccc3Sc3ccccc32)nc2ccccc2c1=O | 145 µM
112 | O=C(N/N=C/c1ccccn1)c1ccc(Br)o1 | 50.1 µM
